Tests used:
OBP2 = assay: Fluorescent-quench ligand-protein-binding assay (OBP2 binding screen); parameters: species or system Apis mellifera; key: Low, indicates no detectable binding to OBP2.; Moderate, indicates that 50% or less of the compound bound to OBP2.; Strong, indicates that 51% or more of the compound bound to OBP2
From the text: To identify a honeybee repellent disclosed herein, candidate compounds were screened based upon the fact that 2-heptanone is an established repellent of bees. 2-heptanone is thought to mediate its behavioral response through binding to a specific odorant-binding protein called OBP2. Therefore compounds that bind OBP2 have the potential to act as odor “mimics” of 2-heptanone. By utilizing a fluorescent-quench, ligand-protein-binding assay, 30,000 compounds from the DIVERSET® library (ChemBridge Corp., San Diego, Calif.), a chemical library, were screened and over 150 candidate compounds were isolated that bind OBP2 (Table 1). Such assays are generally known in the art. See, e.g., Briand, et al., Ligand-Binding Properties and Structural Characterization of a Novel Rat Odorant-Binding Protein Variant, Eur. J. Biochem. 267(10): 3079-3089 (2000); Briand, et al., Ligand Binding and Physico-Chemical Properties of ASP2, A Recombinant Odorant-Binding Protein From Honeybee (Apis mellifera L.), Eur. J. Biochem. 268(3): 752-760 (2001); Briand, et al., Characterization of a Chemosensory Protein (ASP3c) from Honeybee (Apis mellifera L.) as a Brood Pheromone Carrier, Eur. J. Biochem. 269(18): 4586-4596 (2002), each of which is hereby incorporated by reference in its entirety.

[1] = system: Apis mellifera Carniolan foraging worker honeybees; assay: Proboscis extension response (PER) assay in bees conditioned to 2-heptanone; assay type: in vivo; settings: final compound concentration 0.5% (TRITON X-100/water), 4 s exposure; only bees PER-positive to 2-heptanone and negative to controls counted
Protocol: To determine whether a living honeybee can recognize a candidate compound, these compounds were tested using a proboscis extension response (PER) assay using classical conditioning approaches. Proboscis extension response conditioning is a case of appetitive learning, in which bees learn to associate odor stimuli with sucrose reward in the laboratory. In this case, bees were conditioned to produce a PER to 2-heptanone as the conditioned stimulus and a sugar reward as the unconditioned stimulus. These trained bees were then exposed to an odor pulse of a candidate compound to test whether a candidate compound would also produce a PER. If the candidate compound “mimics” 2-heptanone then the honeybee will extend its proboscis.
For conditioning procedures, Apis mellifera Carniolan foraging worker honeybees were obtained from a local apiary (typically 60 bees per shipment). The honeybees were held overnight in insect cages with food and water freely available, in an environmentally controlled room on a light cycle similar to the ambient cycle at the time of the assay.
For conditioning procedures, all tests were done in an odorant delivery apparatus set inside a fume hood. The apparatus comprised a set of open-ended, horizontal, 3 cm diameter by 10 cm long plastic tubes. Each tube was designed where a honeybee could be positioned at the distal end of a tube, with the opening at the other end of the tube located proximal to an inlet of the fume hood. To deliver an odorant, room air was pumped by a diaphragm pump through a particle filter via 0.25 inch plastic tubing at approximately 0.7 m/sec. The air flow passes into the headspace above an odorant (0.5% [v/v]2-heptanone dissolved in odorless light paraffin oil) contained in a 100 mL bottle. The headspace air then passes through another plastic tube to a manifold of 4-way valves, each of which was attached near the proximal end of a plastic tube containing a bee. Each bee was exposed separately for a desired time period to the odorant by opening and closing the appropriate valve. When each valve was closed, the odor was flushed away immediately by the continuous fume hood air stream.
To train a honeybee to respond to a conditioned and unconditioned stimuli, bees were placed, without anesthesia, in individual 1.5 mL micro-centrifuge holding tubes and held overnight without access to food or water. The holding tubes containing the starved bees were placed in racks in groups of eight. One rack at a time was placed behind the odorant delivery apparatus so that each bee's head is centered at the distal end of a horizontal plastic tube. Each bee was exposed to the 2-heptanone odorant alone for four seconds, and then while being fed an 80% sucrose solution for and additional three seconds. The sucrose solution was delivered on a piece of saturated filter paper held in forceps. […] Positive and negative responses were recorded. A positive PER was scored when a bee extended its proboscis before the sucrose appeared. In a typical trial, 48 individual bees were subjected to conditioning. Six rounds of training were done before testing began, and typically a majority of the bees were successfully conditioned by the second or third round of training.
After conditioning, honeybees were tested with the candidate compounds the same day or on the following day or, most commonly, both. When held overnight, bees were fed with sucrose and kept in their holding tubes. When tested the day after training, bees were given one or more rounds of conditioning with 2-heptatone to refresh their memories. Candidate compounds stocks were made at 5% (w/v) in polyoxyethylene octyl phenyl ether (TRITON® X-100), a non-ionic detergent/surfactant, and stored at 4° C. This detergent is similar to substances used as carriers for a variety of commercial pest-control agents, can act as a solvent for both hydrophilic and hydrophobic substances, and is itself nearly odorless. […]

Structure (SMILES)	OBP2 binding characteristic of compound (OBP2)	2-heptanone positive bees testing positive to compound [1] [%]
COc1cccc(C(=O)Oc2ccc3c(c2)C(C)=CC(C)(C)N3)c1 [compound 37]	Moderate (Moderate, indicates that 50% or less of the compound bound to OBP2.)	14.4
c1ccc(CCN(Cc2ccccc2)Cc2cccnc2)cc1 [compound 39]	Moderate (Moderate, indicates that 50% or less of the compound bound to OBP2.)	1.9
CCOC(=O)C1=C(C)NC(C)=C(C(=O)OC)C1c1ccc(Br)cc1 (stereo not drawn) [compound 41]	Moderate (Moderate, indicates that 50% or less of the compound bound to OBP2.)	1.4
COC(=O)C1=C(C(=O)OC)SC(=C2C(=S)C(C)(C)N(C)c3ccccc32)S1 [compound 4]		4.7
CCOc1ccc(C=Nc2ccc(Br)c(Cl)c2)cc1 [compound 12]		5.8
O=[N+]([O-])c1cc2c(cc1CN1CCSCC1)OCO2 [compound 47]		18.3
O=[N+]([O-])c1cc2c(cc1CN1CCN(c3cccc(Cl)c3)CC1)OCO2 [compound 64]	Moderate (Moderate, indicates that 50% or less of the compound bound to OBP2.)	7.0
COc1ccc(CN2CCOCC2)c(C)c1C [compound 33]	Low*	8.5
CCn1c2ccccc2c2cc(C=Nc3ccc(C(N)=O)cc3)ccc21 [compound 56]	Moderate (Moderate, indicates that 50% or less of the compound bound to OBP2.)	18.2
O=C(COC(=O)c1ccccc1)c1cccc(Br)c1 [compound 54]	Moderate (Moderate, indicates that 50% or less of the compound bound to OBP2.)	9.1
CN1CCN(Cc2cc3c(cc2[N+](=O)[O-])OCO3)CC1 [compound 45]		11.6
O=C(NCCCOC(=O)c1ccc(Cl)cc1)c1ccc(Cl)cc1 [compound 58]	Moderate (Moderate, indicates that 50% or less of the compound bound to OBP2.)	8.3
COc1ccc(CN2CCN(C)CC2)c(C)c1C [compound 62]		11.6
CC(C)(C)C1=CC(=NNC(N)=S)C=C(C(C)(C)C)C1=O [compound 42]	Moderate (Moderate, indicates that 50% or less of the compound bound to OBP2.)	2.6
Cc1ccc2c(c1Br)C(=NNC(=O)C1CC13CCC3)C(=O)N2 (stereo not drawn) [compound 55]	Moderate (Moderate, indicates that 50% or less of the compound bound to OBP2.)	13.6
COC(=O)c1cc(S(=O)(=O)Nc2ccc(Br)cc2)ccc1Cl [compound 44]	Moderate (Moderate, indicates that 50% or less of the compound bound to OBP2.)	7.3
COc1ccc(CN2CCN(c3ccc(C)cc3)CC2)c(C)c1C [compound 49]		0.0
CCOC(=O)c1cc(-c2cccc(N)c2)nc2ccccc12 [compound 21]	Strong (Strong, indicates that 51% or more of the compound bound to OBP2.)	4.4

Structure (SMILES)	OBP2 binding characteristic of compound (OBP2)	2-heptanone positive bees testing positive to compound [1] [%]
COc1ccc(CN(C)CCN(C)C)c(C)c1C [compound 66]		3.1
CC(C)Nc1c(Cl)c(Cl)c(Cl)c2c1C(=O)c1ccccc1C2=O [compound 22]	Strong (Strong, indicates that 51% or more of the compound bound to OBP2.)	4.4
COC(=O)C1=C(C(=O)OC)SC(=C2C(=S)C(C)(C)Nc3cc(C)ccc32)S1 [compound 19]	Strong (Strong, indicates that 51% or more of the compound bound to OBP2.)	2.8
O=[N+]([O-])c1ccc(N2CCOCC2)cc1OCCOc1ccccc1 [compound 14]	Moderate (Moderate, indicates that 50% or less of the compound bound to OBP2.)	3.9
CCCCn1c(=O)c(C(=O)NCc2ccccn2)c(O)c2ccccc21 [compound 16]	Strong (Strong, indicates that 51% or more of the compound bound to OBP2.)	6.2
COc1ccc(CN(C)CCN(C)C)c(C)c1C [compound 32]		2.4
O=C(C=Cc1c[nH]c2ccccc12)c1ccc(C(=O)C=Cc2c[nH]c3ccccc23)cc1 [compound 51]		14.8
COc1cc(C)c(CN2CCN(CCO)CC2)cc1C [compound 31]		0.0
CCN(CC)c1ccc2c(C)c([N+](=O)[O-])c(=O)oc2c1 [compound 6]		0.0
COc1ccccc1N1C(=O)C(=Cc2ccc(Cl)cc2)SC1=S [compound 5]		7.1
COc1ccc(CN2CCN(Cc3cccc(C)c3)CC2)cc1 [compound 65]		6.3
COc1ccc(CN2CCOCC2)c(C)c1C [compound 63]		10.9
O=[N+]([O-])c1cc2c(cc1CN1CCN(c3cccc(Cl)c3)CC1)OCO2 [compound 24]		4.8
CN(CCc1ccccn1)Cc1cc2c(cc1[N+](=O)[O-])OCO2 [compound 48]		18.9
COc1ccc2ccccc2c1C=NN1C(=O)c2ccccc2C1=O [compound 13]		8.7
COc1cc(CN2CCN(Cc3ccc4c(c3)OCO4)CC2)c([N+](=O)[O-])cc1OC [compound 46]		12.8
O=C(C=Cc1c[nH]c2ccccc12)c1ccc(-c2ccccc2)cc1 [compound 52]		13.9

From patent US10098352B2, “Honeybee repellents and uses thereof” (Inscent, Inc., priority 2011, dated 2018)
